Laboratory results published in publication PMC4204886 (Biochemistry, 2014).

Columns and labels:
[1] = target: T1, class C P99 β-lactamase (Enterobacter cloacae, UniProt P05364); assay: P99 β-lactamase inhibition, steady-state competition with cephalothin; format: biochemical
[2] = target: class A TEM-2 β-lactamase (Escherichia coli, UniProt P62593, Q37K); format: biochemical, E. coli W3310
[3] = tested on: Pseudomonas class C β-lactamase; conditions: cited from earlier work
[4] = tested on: class A BCI β-lactamase; conditions: cited from earlier work
[5] = tested on: CC(=O)OCC1=C(C(=O)O)N2C(=O)[C@@H](NC(=O)Cc3cccs3)[C@H]2SC1; assay: AmpC β-lactamase inhibition, steady-state competition with cephalothin; format: biochemical; conditions: pH 7.5; 25.0 °C
[6] = target: T1, class C P99 β-lactamase; conditions: read-out: Km of the substrate; P99 enzyme; 20 mM MOPS pH 7.50, 25 °C; cited from earlier work
[7] = target: AmpC β-lactamase (Escherichia coli, UniProt P00811); assay: AmpC β-lactamase inhibition, steady-state competition with cephalothin; format: biochemical
[8] = target: class A Staphylococcus aureus PC1 β-lactamase (Staphylococcus aureus, UniProt P00807); assay: PC1 β-lactamase inhibition; format: biochemical
[9] = target: Actinomadura R39 DD-peptidase (Actinomadura sp., UniProt P39045); assay: R39 DD-peptidase inhibition in solution; format: biochemical
[10] = target: class A SHV-1 β-lactamase (Klebsiella pneumoniae, UniProt P0AD64); assay: SHV-1 β-lactamase inhibition; format: biochemical; conditions: even at 1 mM concentrations
[11] = target: Streptomyces R61 DD-peptidase (Streptomyces sp., UniProt P15555); assay: R61 DD-peptidase inhibition in solution; format: biochemical
[12] = target: B. subtilis PBP4a (Bacillus subtilis, UniProt P39844); assay: PBP4a inhibition in solution; format: biochemical
[13] = tested on: E. coli PBP1a/1b; assay: Membrane-bound PBP inhibition, Bocillin Fl competition gel; format: binding; conditions: gel experiments, E. coli membranes, 1 h preincubation, Bocillin Fl 20 μM
[14] = target: E. coli PBP2 (Escherichia coli, UniProt P0AD65); assay: as above; format: binding; conditions: gel experiments, E. coli membranes, 1 h preincubation, Bocillin Fl 20 μM
[15] = target: E. coli PBP3 (Escherichia coli, UniProt P0AD68); assay: as above; format: binding; conditions: gel experiments, E. coli membranes, 1 h preincubation, Bocillin Fl 20 μM
[16] = target: E. coli PBP4 (Escherichia coli, UniProt P24228); assay: as above; format: binding; conditions: gel experiments, E. coli membranes, 1 h preincubation, Bocillin Fl 20 μM
[17] = target: E. coli PBP5 (Escherichia coli, UniProt P0AEB2); assay: as above; format: binding; conditions: gel experiments, E. coli membranes, 1 h preincubation, Bocillin Fl 20 μM
[18] = target: TEM-1 β-lactamase (Escherichia coli, UniProt P62593, Q37K); assay: TEM-1 β-lactamase inhibition; format: biochemical; conditions: even at 1 mM concentrations

In the case of “Methyl penicilloate [compound 28, reference compound]”, the substrate activity ([1]; P99 β-lactamase, see Supporting Information) is given as “substrate”, the “substrate / covalent inhibitor activity” value [2] is given as “neither a substrate nor a covalent inhibitor” and the substrate activity [3] is given as “substrate”. For the same molecule, the “substrate / covalent inhibitor activity” value [4] was “neither a substrate nor a covalent inhibitor”.

For “AmpC β-lactamase (Escherichia coli K-12)”, the Km [5] was 13.8 µM.

In the case of `CC(=O)OCC1=C(C(=O)O)N2C(=O)[C@@H](NC(=O)Cc3cccs3)[C@H]2SC1` [cephalothin], the Km [6] is listed as 9 µM.

With `CC1(C)SC(C(NC(=O)Cc2ccccc2)B(O)O)NC1C(=O)O` (centres unmarked) [compound 12, 2-[1-(dihydroxyboranyl)(2-phenylacetamido)methyl]-5,5-dimethyl-1,3-thiazolidine-4-carboxylic acid] the Ki [1] was 950 ± 110 nM, the Ki [7] was 1300 ± 400 nM and the Ki ([2]; TEM-2 β-lactamase, NI = no inhibition at 1.0 mM) was “NI ^b”. For the same molecule, the “inhibition of TEM-2 enzyme over time” value ([2]; in 24 h) was “no inhibition”, the Ki ([8]; PCI β-lactamase, NI = no inhibition at 1.0 mM) was “NI ^b” and the “inhibition of PCI β-lactamase” value ([8]; even at 1 mM concentrations) was “Neither the TEM-1, SHV-1, nor PCI β-lactamases were inhibited”. The Ki ([9]; R39 DD-peptidase, NI = no inhibition at 0.10 mM) was “NI ^c”, the “inhibition of Actinomadura R39 DD-peptidase” value ([9]; in solution) was “no inhibition” and the “inhibition of SHV-1 β-lactamase” value [10] was “Neither the TEM-1, SHV-1, nor PCI β-lactamases were inhibited”. The “inhibition of Streptomyces R61 DD-peptidase” value [11] was “no inhibition”, the “inhibition of B. subtilis PBP4a” value [12] was “no inhibition” and the “inhibition of E. coli PBP1a/1b” value [13] was “did not inhibit”. The “inhibition of E. coli PBP2” value [14] was “did not inhibit”, the “inhibition of E. coli PBP3” value [15] was “did not inhibit” and the “inhibition of E. coli PBP4” value [16] was “did not inhibit”. For the same molecule, the “inhibition of E. coli PBP5” value [17] was “did not inhibit” and the “inhibition of TEM-1 β-lactamase” value [18] was “Neither the TEM-1, SHV-1, nor PCI β-lactamases were inhibited”.
